Legend:
MeCP2 deficient mice = test: Seizure activity, electroencephalograph recordings in MeCP2 deficient mice; type: in vivo
Source text: Electroencephalograph: recordings of wild-type mice and MeCP2 deficient mice treated with either saline or cG-2-AllylP are obtained using methods described in U.S. Pat. No. 7,714,020, incorporated fully by reference.

[1] = test system: heterozygous Shank3-deficient mice; test: Shank3-deficient mice: olfactory habituation/dishabituation; type: in vivo; conditions: all 4 groups
Method: 1 to 3 month old wild-type and heterozygous Shank3-deficient mice are divided into 4 treatment groups: placebo treated wild-type, placebo treated Shank3-deficient group and two Shank3-deficient cG-2-AllylP treated groups. The animals are given placebo (water) or cG-2-AllylP formulated in water administered orally, b.i.d for 14 days. cG-2-AllylP is administered at two doses: 15 or 60 mg/kg.
Olfactory habituation/dishabituation testing is conducted in male and female mice for each group. The methodology is as previously described (Silverman et al 2010, Yang et al 2009 and Silverman et al 2010). Non-social and social odors are presented on a series of cotton swabs inserted into the home cage sequentially, each for 2 min, in the following order; water, water, water (distilled water); almond, almond, almond (1:100 dilution almond extract); banana, banana, banana (1:100 dilution artificial banana flavouring); social 1, social 1, social 1 (swiped from the bottom of a cage housing unfamiliar sex-matched B6 mice); and social 2, social 2, social 2 (swiped from the bottom of a second cage housing a different group of unfamiliar sex-matched 129/SvImJ mice). One-way repeated measures ANOVA is performed within each treatment group for each set of habituation events and each dishabituation event, followed by a Tukey post hoc test.

[2] = test system: neurons in the CA3 region of the hippocampus; test: Neuron soma size in the hippocampus; type: in vivo, mice
Method: We also measure the effect of cG-2-AllylP treatment on neuron soma size in the hippocampus. Mice are treated with cG-2-AllylP as described above for locomotor activity.

p-Akt = test: Phospho-flow cytometry of lymphocytes, p-Akt; type: in vivo; conditions: fmr1-knockout mice; 15, 30, 60 and 240 minutes after a single treatment
Source text: Lymphocytes are isolated from five fmr1-knockout and five wild-type titter mate control mice, per study time after injection with cG-2-AllylP. Lymphocytes are examined for activation of two signaling effectors, p-ERK1/2 and p-Akt using phosphorylation status as a measure of activation by flow cytometry (phospho-flow).
2. Flow cytometry total and phosphorylated AKT in lymphocytes

[3] = test system: pre-synaptic vesicles in the hippocampus; test: Pre-synaptic vesicle count by transmission electron microscopy, middle aged rats; type: in vivo, Wistar male rats; conditions: CA1 and C3 subregions; 3 mg/kg/day x 7 days, s.c.; 21 days
Method: Four middle aged Wistar male rats (12 months) were divided into two groups: one vehicle-treated (n=2) and one cG-2-AllylP-treated (n=2). The rats were treated subcutaneously with 3 mg/kg/day of either saline or cG-2-AllylP for 7 days. On day 21 of the experiment the animals were sacrificed and the hippocampal tissue was harvested. Semi-thin sections of the tissue were fixed with OsO4 and embedded in resin. CA1 stratum oriens and CA3 sections were then sliced into ultra-thin, 80 nm slices and stained with uranyl acetate and lead citrate. Approximately 30 synapses per animal were analysed, synapse type classified and vesicle density was measured using AnalySIS®.
Transmission electron microscopy was used to count the total number of vesicles on the slides. The average density was calculated by measuring the total area (using AxioVision software) and using the number of vesicles. We followed the protocol in Yoshida et al. 97, Journal of Neurochemistry to calculate the vesicle density in a 200 nm×200 nm square apposing the post-synaptic density (PSD).

[4] = test system: fmr1-knockout mice and wild-type littermates; test: Successive Alleys Test; type: in vivo
Method: The fmr1-knockout (KO2) mice (C57BL/6 background) were housed in groups of the same genotype in a temperature and humidity controlled room with a 12-h light-dark cycle (lights on 7 am to […]). Testing was conducted during the light phase. Food and water were available ad libitum. Testing was conducted on fmr1-knockout mice and their wild-type littermates. Experiments were conducted according to requirements of the UK Animals (Scientific Procedures) Act, 1986. The animals were divided into four groups:
In one study, we used a “Successive Alleys Test” device. This device consists of four successive, linearly connected increasingly anxiogenic alleys. Each succeeding alley was painted a lighter color, had lower walls and/or was narrower than the previous alley. Animals were placed at the closed end of alley 1 (A1), facing the end wall. The latency to first enter each alley (A2, A3, and/or A4), the amount of time spent in each alley, and the number of entries into each alley were recorded during a total test time of 300 seconds.
For a Successive Alleys Test, we measured the number of entries in Alley 1 (A1), Alley 2 (A2), Alley 3 (A3), and Alley 4 (A4) for each of the 4 groups of animals described above.

interleukin 1 beta = test: PBBI in rats: IL-1beta ELISA; type: in vivo; conditions: 30 mg/kg oral gavage once daily
Source text: The unilateral frontal PBBI model, which mimics the ballistic dynamics of a bullet or fragment wound to the head (Williams, 2003; Williams, 2006), was induced by stereotactic insertion of a custom probe through the right frontal cortex. A temporary cavity was formed by the rapid inflation/deflation (i.e. <40 msec) of an elastic balloon attached to the end of the probe. The PBBI apparatus consisted of a computer-controlled hydraulic pressure generator (Mitre Corp McLean, Va.), a PBBI probe and a stereotaxic frame equipped with a custom-designed probe holder as previously described (Lu, 2009; Williams, 2003). The injury severity was determined by the size of the balloon under control of the computerized hydraulic pressure. The balloon diameter calibrated to 0.63 cm expansion represented 10% of the total rat brain volume thus expressing a 10% PBBI. All surgeries were done under anaesthesia. Groups tested: Sham+vehicle, PBBI+vehicle, PBBI+cG-2-AllylP (30 mg/kg by oral gavage, 30 min post-injury, and again once daily until endpoint). […]
Target proteins were quantified with interleukin 1 beta (“IL-1beta”) (GenWay Biotech GWB-SKR107) and interleukin-6 (“IL-6”) (GenWay Biotech GWB-ZZD100) ELISAs according to manufacturer's instructions. Levels were calculated and normalized to total protein concentration as determined by BCA assay (n=9-10 per group).

With `C=CC[C@]12CCCN1C(=O)CNC2=O` [cG-2-AllylP, (8aS)-Allyl-hexahydropyrrolo[1,2-a]pyrazine-1,4-dione] as the compound, how does the “motor seizures and non-convulsive seizures” value (MeCP2 deficient mice) read?
The value was “effective in decreasing both motor seizures and non-convulsive seizures”.

And the olfactory habituation [1]?
Its olfactory habituation is “normal levels of habituation”.

What about the average soma size ([2]; KO animals) of the same compound?
Its average soma size is “increases average soma size in KO animals”.

And the soma size ([2]; wild type animals)?
Its soma size is “little or no effect on soma size in wild type animals”.

And the “mean fluorescent intensity (MFI) for p-AKT” value (p-Akt)?
The value was “decreases at all time points”.

What about the “number of pre-synaptic vesicles” value [3] of the same compound?
The value was “increased”.

What about the “number of entries into arm A1” value ([4]; fmr1-knockout animals) of the same compound?
The value was “about 4 times”.

And the “number of entries into arm A2” value ([4]; fmr1-knockout animals)?
Its value is “about 4 times”.

What about the “number of entries into arm A3” value ([4]; fmr1-knockout animals) of the same compound?
The value was “about 4 times”.

And the “number of entries into arm A4” value ([4]; fmr1-knockout animals)?
The value was “about 3 times”.

What about the open arm entries ([4]; fmr1-knockout animals vs vehicle, p<0.001) of the same compound?
Its open arm entries is “significant reduction in open arm entries”.

And the “time spent in the center” value ([4]; fmr1-knockout animals vs vehicle, p<0.005)?
Its value is “significant reduction”.

What about the “number of entries into arm A1” value ([4]; wild-type animals) of the same compound?
The value was “about 2 times”.

What about the “number of entries into arm A2” value ([4]; wild-type animals) of the same compound?
Its value is “about 4 times”.

And the IL1-beta levels (interleukin 1 beta; 3 days after PBBI)?
Its IL1-beta levels is “increased IL1-beta levels at 3 days after PBBI”.

And the IL1-beta levels (interleukin 1 beta; 7 days after PBBI)?
Its IL1-beta levels is “decreased levels of IL1-beta at 7 days after PBBI”.
